Paper PMC7582905, “Effect of Disulfide Cyclization of Ultrashort Cationic Lipopeptides on Antimicrobial Activity and Cytotoxicity” (International Journal of Molecular Sciences, 2020)

Assays:
C. albicans (ATCC 10231) = conditions: ref [5] Makovitzki et al.; cited from earlier work
Excerpt: When a peptide is cyclic its antifungal activity is usually remarkably higher than that of the antibacterial activity as compared that of the linear parent molecules. The differences in antifungal and antibacterial (Gram-negative) activities between the cyclic and linear lipopeptides are statistically significant (p < 0.05). Makovitzki et al. have reported a high antimicrobial activity of C16-KKkK-NH2 (originally written as C16-KKKK-NH2; k/K—D-enantiomer) against P. aeruginosa, E. coli, and S. aureus (3–6.25 μM; approx. 2.3–4.8 μg/mL) being similar to that of lipopeptide 3. However, different ...

[1] = test system: Candida albicans ATCC 10231; assay: Transmission electron microscopy (TEM); format: cell-based; conditions: 2 × MIC, 5.0 × 10^6 CFU/mL, 1 h at room temperature
Method: TEM was used to examine ultrastructural changes in the Candida albicans ATCC 10231 cells treated with selected lipopeptides (L2, C2, L4, C4) and melittin (positive control). Fungal cells (Candida albicans ATCC 10231) were incubated in RMPI-1640 overnight. The cells were centrifuged (3500 rpm, 7 min) and resuspended in fresh RMPI-1640 medium to obtain dense cell suspension (5.0 × 10^6 CFU/mL). The high cell-density culture was prepared to facilitate TEM observations. Peptides’ concentrations were 2 × MIC. Samples were incubated for 1 h at room temperature. Importantly, MIC of selected peptides (L2, C2, L4, C4, and melittin) were also determined with dense inoculum of yeasts (5.0 × 10^6 CFU/mL). After the treatment, the fungal cells were centrifuged (3500× rpm, 10 min) and washed twice with PBS. Fungal cells were fixed with 2.5% glutaraldehyde buffered at pH 6.5 with 0.1 M sodium cacodylate (Polysciences, Warrington, PA, USA) for 6 h at room temperature. Postfixation was performed with a 1% osmium tetroxide (Polysciences, Warrington, PA, USA) solution for 2 h at 4 °C. The cells were then centrifuged and resuspended in 0.1 M cacodylate buffer (pH 6.5). After re-centrifugation, cells were dehydrated with ethanol. Yeasts were embedded in Epon 812 resin (Sigma-Aldrich) at room temperature. An ultramicrotome Leica UC7 was used to prepare ultrathin sections (55 nm). […]

Row | Molecule | MIC C. albicans (ATCC 10231) (C. albicans (ATCC 10231)) | ultrastructural changes in TEM micrographs [1]
1 | C16-KKkK-NH2 | 25 µM | 
2 | CC[C@H](C)[C@H](NC(=O)CN)C(=O)NCC(=O)N[C@@H](C)C(=O)N[C@H](C(=O)N[C@@H](CC(C)C)C(=O)N[C@@H](CCCCN)C(=O)N[C@H](C(=O)N[C@@H](CC(C)C)C(=O)N[C@H](C(=O)N[C@H](C(=O)NCC(=O)N[C@@H](CC(C)C)C(=O)N1CCC[C@H]1C(=O)N[C@@H](C)C(=O)N[C@@H](CC(C)C)C(=O)N[C@H](C(=O)N[C@@H](CO)C(=O)N[C@@H](Cc1c[nH]c2ccccc12)C(=O)N[C@H](C(=O)N[C@@H](CCCCN)C(=O)N[C@@H](CCCNC(=N)N)C(=O)N[C@@H](CCCCN)C(=O)N[C@@H](CCCNC(=N)N)C(=O)N[C@@H](CCC(N)=O)C(=O)N[C@@H](CCC(N)=O)C(N)=O)[C@@H](C)CC)[C@@H](C)CC)[C@@H](C)O)[C@@H](C)O)C(C)C)C(C)C [melittin, Melittin, reference compound] |  | numerous vesicles are visible inside and outside the cell
